# How the values were obtained:
# Assay type in all cases: cell-based
# [1] = system: LAN-1; test: MTS cell viability assay, soluble SN-38 on LAN-1 neuroblastoma cells; details: LAN-1 cells, 4 hours exposure, viability 4 days later
# Experimental: (§1) To determine whether the antitumor activity of the drug was conserved after the manufacturing process of the membranes, the present inventors co-incubated the membranes with neuroblastoma cell lines. In a previous experiment, the present inventors determined the extent to which SN-38 inhibits neuroblastoma. Such experiment was performed by exposing LAN-1, SK-N-BE(2)c and SK-N-AS cell lines to a fresh solution of SN-38 in RPMI, prepared from a stock solution of SN-38, 1 mg/mL in DMSO. Briefly, cells were plated in 96 well plates, 3000 cells per well, in RPMI medium. 24 hours later, the cells were exposed to SN-38 (concentration range 10-0.000001 μM). After 4 hours, the drug was withdrawn and fresh medium was added. The viability of the cell culture was quantified 4 days later, by using the MTS cell viability assay (Promega).
# (§2) Each dot represents the mean (±SD) of 3-5 wells.
# [2] = system: SK-N-BE(2)c; test: MTS cell viability assay, soluble SN-38 on SK-N-BE(2)c neuroblastoma cells; details: SK-N-BE(2)c cells, 4 hours exposure, viability 4 days later
# Experimental: as §1, §2
# [3] = system: SK-N-AS; test: MTS cell viability assay, soluble SN-38 on SK-N-AS neuroblastoma cells; details: 4 hours exposure, viability 4 days later
# Experimental: as §1, §2
smiles,measurement,setting,value
"CCc1c2c(nc3ccc(O)cc13)-c1cc3c(c(=O)n1C2)COC(=O)[C@]3(O)CC [SN-38, 7-ethyl-10-hydroxycamptothecin]",IC50,[1],10 nM
same,IC50,[2],46 nM
same,IC50,[3],190 nM

# — patent publication US9561190B2, “Nonwoven membrane as a drug delivery system” (priority 2012, dated 2017)
